Experimental data published in patent publication USRE48335E1, “Polymyxin derivatives as antimicrobial compounds” (priority 2014, dated 2020).
Values after ≈ are worked out from the molar mass of the structure shown. Positions of bridges follow the written chain, without caps; N, C: chain ends. Non-standard residues stand in square brackets, D forms with d. Residues, ends and D or L forms follow the SMILES beside them. *: point of attachment. Octanoyl = CCCCCCCC(=O)*; Dab = NCC[C@H](N)C(=O)O; Hexanoyl = CCCCCC(=O)*

Columns and labels:
Acinetobacter baumannii = tested on: Acinetobacter baumannii
Method in brief: (§1)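 Read-out is the MIC, obtained by broth microdilution under CLSI guidance. Lipopeptides (TFA salt form) were diluted in cation-adjusted Mueller-Hinton broth, with polymyxin B sulphate run alongside as control.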

Enterobacter cloacae = tested on: Enterobacter cloacae
Method in brief: as §1

Klebsiella pneumoniae = tested on: Klebsiella pneumoniae
Method in brief: as §1

Pseudomonas aeruginosa = tested on: Pseudomonas aeruginosa
Method in brief: as §1

P. aeruginosa ATCC 27853 = assay: In vivo efficacy in mouse blood infection model (neutropenic Swiss mice); conditions: compound, free base 4 mg/kg intravenously 2 h after inoculation, blood at 4 h
Method: P. aeruginosa ATCC 27853, A. baumannii ATCC 19606 and K. pneumoniae FADDI-KP032 were subcultured on nutrient agar plates. One colony of each bacterial strain was dispersed in 10-mL CAMHB and incubated overnight. On day 2, an aliquot (0.2 mL) of each overnight culture suspension was dispersed in 20-mL CAMHB and incubated for 1.5-2.5 h for production of early log-phase growth bacterial culture. The bacteria in the early log-phase growth suspension were concentrated by centrifugation (3,220 g for 10 min) and re-suspended in sterile 0.9% saline for inoculation into mice. The bacterial cell concentration (colony forming unit [CFU]/mL) in saline was estimated by determining the optical density (OD) of the suspension at 600 nm, and confirmed by plating the suspension on nutrient agar plates. Swiss mice (22 to 28 g) were rendered neutropenic by injecting two doses of cyclophosphamide intraperitoneally, −4 day (150 mg/kg) and −1 day (100 mg/kg) prior to inoculation. Bloodstream infection was established by injecting intravenously 50 μL of early log-phase bacterial suspension (10^8-10^9 CFU/mL). The exact injection volume for each bacterial suspension was calculated based upon the OD value of the bacterial suspension and the desired inoculum for each isolate.
Solutions for administration of colistin, polymyxin B or the compounds were prepared at a concentration of 1 mg (free base) per mL in sterile 0.9% saline. At 2 h after inoculation, a mouse in the treatment groups was injected intravenously with one of the above solutions at 4 μL/g body weight (BW) (i.e. free base 4 mg/kg BW), while the same volume of saline was injected into the control mice. At 0 h or at 4 h after the administration of antibacterial drug or saline (control), animals were euthanised by inhalation of overdose isoflurane. The skin on the chest and fore-paws of each animal was thoroughly cleansed with 70% ethanol and Betadine®. The blood was collected via cardiac puncture using a 1-mL syringe rinsed with heparin (5,000 IU/mL), diluted serially in sterile 0.9% saline and plated on nutrient agar plates using a spiral plater.
The agar plates were incubated at 37° C. overnight. The bacterial colonies on the plate were counted and CFU/mL of the blood was calculated. The log10 CFU/mL of blood in each mouse was calculated. The in vivo activity of the compounds against the bacteria was calculated as the difference of the log10 CFU/mL values between the treated mice and the control mice at 4 h (Δ log=log10 (treated)CFU/mL−log10 (control)CFU/mL).
Any compound showing a decrease in bacterial loading (Δ log) of ≥2 at 4 h is considered to have good in vivo efficacy in this initial screening model.

Row | Structure (SMILES) | MIC (Acinetobacter baumannii) [µg/mL] | Minimum inhibitory concentration, Ab A ATCC 17978 (Acinetobacter baumannii) [µg/mL] | Minimum inhibitory concentration, Ab ATCC 19606 (Acinetobacter baumannii) [µg/mL] | Minimum inhibitory concentration, Ab FADDI-AB034 (Acinetobacter baumannii) [µg/mL] | Minimum inhibitory concentration, Ec FADDI-EC001 (Enterobacter cloacae) [µg/mL] | Minimum inhibitory concentration, Ec FADDI-EC003 (Enterobacter cloacae) [µg/mL] | Minimum inhibitory concentration, Ec FADDI-EC006 (Enterobacter cloacae) [µg/mL] | MIC (Klebsiella pneumoniae) [µg/mL] | MIC (Pseudomonas aeruginosa) [µg/mL] | Minimum inhibitory concentration, Pa ATCC 27853 (Pseudomonas aeruginosa) [µg/mL] | Minimum inhibitory concentration, Pa FADDI-PA022 (Pseudomonas aeruginosa) [µg/mL] | Minimum inhibitory concentration, Pa FADDI-PA025 (Pseudomonas aeruginosa) [µg/mL] | Δ log (Treated-Control at 4 h) (P. aeruginosa ATCC 27853) [log10 CFU/mL]
1 | CCCCCCCC(=O)N[C@@H](CCN)C(=O)N[C@H](C(=O)N[C@H](CO)C(=O)N[C@H]1CCNC(=O)[C@H]([C@@H](C)O)NC(=O)[C@H](CCN)NC(=O)[C@H](CCN)NC(=O)[C@H](CO)NC(=O)[C@@H](CC(C)C)NC(=O)[C@H](CCN)NC1=O)[C@@H](C)O [Compound 6] (Octanoyl-[Dab]T[dS][Dab][Dab][dL]S[Dab][Dab]T; lactam 4-C) | 1 (≈ 0.896 µM) | 1 (≈ 0.896 µM) | 1 (≈ 0.896 µM) | 0.5 (≈ 0.448 µM) | 0.25 (≈ 0.224 µM) | 0.25 (≈ 0.224 µM) | 0.25 (≈ 0.224 µM) | 0.5 (≈ 0.448 µM) | >32 | >32 | 4 (≈ 3.58 µM) | >32 | 
2 | CCCCCC(=O)N[C@@H](CCN)C(=O)N[C@H](C(=O)N[C@H](CO)C(=O)N[C@H]1CCNC(=O)[C@H]([C@@H](C)O)NC(=O)[C@H](CCN)NC(=O)[C@H](CCN)NC(=O)[C@H]([C@@H](C)O)NC(=O)[C@@H](CC(C)C)NC(=O)[C@H](CCN)NC1=O)[C@@H](C)O [Compound 8] (Hexanoyl-[Dab]T[dS][Dab][Dab][dL]T[Dab][Dab]T; lactam 4-C) | 2 (≈ 1.81 µM) | 2 (≈ 1.81 µM) | 2 (≈ 1.81 µM) | 1 (≈ 0.907 µM) | 0.25 (≈ 0.227 µM) | 0.5 (≈ 0.454 µM) | 0.25 (≈ 0.227 µM) | 1 (≈ 0.907 µM) | 4 (≈ 3.63 µM) | 4 (≈ 3.63 µM) | 8 (≈ 7.26 µM) | >32 | −0.05
3 | CCCCCC(=O)N[C@@H](CCN)C(=O)N[C@H](C(=O)N[C@@H](CCN)C(=O)N[C@H]1CCNC(=O)[C@H]([C@@H](C)O)NC(=O)[C@H](CCN)NC(=O)[C@H](CCN)NC(=O)[C@H]([C@@H](C)O)NC(=O)[C@@H](CC(C)C)NC(=O)[C@H](CCN)NC1=O)[C@@H](C)O [Compound 26] (Hexanoyl-[Dab]T[Dab][Dab][Dab][dL]T[Dab][Dab]T; lactam 4-C) | 16 (≈ 14.3 µM) | 8 (≈ 7.17 µM) | 16 (≈ 14.3 µM) | 16 (≈ 14.3 µM) | 0.5 (≈ 0.448 µM) | 0.5 (≈ 0.448 µM) | 1 (≈ 0.897 µM) | 2 (≈ 1.79 µM) | 0.5 (≈ 0.448 µM) | 0.5 (≈ 0.448 µM) | 2 (≈ 1.79 µM) | >32 | −0.04
